Measurements from patent US10100049B2, “JAK kinase inhibitor compounds for treatment of respiratory disease” (THERAVANCE BIOPHARMA R&D IP, LLC, priority 2015, dated 2018).

Assay: Dynamic moisture sorption assessment
Assay type: physicochemical
Experimental: Dynamic moisture sorption (DMS) measurement was performed using a VTI atmospheric microbalance, SGA-100 system (VTI Corp., Hialeah, Fla. 33016). A weighed sample was used and the humidity was lowest possible value (close to 0% RH) at the start of the analysis. The DMS analysis consisted of an initial drying step (˜0% RH) for 120 minutes, followed by two cycles of sorption and desorption with a scan rate of 5% RH/step over the humidity range of 5% RH to 90% RH. The DMS run was performed isothermally at 25° C.

Q: With CCc1cc(O)c(F)cc1-c1ccc2c(-c3nc4c([nH]3)CCN(C3CCN(C)CC3)C4)n[nH]c2c1 [crystalline hydrate, Crystalline hydrate of 5-ethyl-2-fluoro-4-(3-(5-(1-methylpiperidin-4-yl)-4,5,6,7-tetrahydro-1H-imidazo[4,5-c]pyridin-2-yl)-1H-indazol-6-yl)phenol] as the molecule, how does the “weight gain (moisture sorption)” value (5% to 90% relative humidity, about 25° C.) read?
A: less than 0.12%

Q: And the hygroscopicity (two cycles of sorption and desorption)?
A: non-hygroscopic
